Assay results taken from publication PMC12040169 (PLOS Biology, 2025).

Test: in vitro
Details: human, hela cells, % viability

## Nc1ncnc(NCCCN2CCOCC2)c1[N+](=O)[O-] [CBK267267]
  viability at 28.5 h, 10 µM: 91.8%

## Cc1cc(NS(=O)(=O)c2ccc(Nc3nc(-c4cccs4)cs3)cc2)no1 [CBK262504]
  viability at 28.5 h, 10 µM: 101%

## COc1ccc(CN(CCN2CCOCC2)C(=O)Nc2cccnc2)cc1OC [CBK159379]
  viability at 28.5 h, 10 µM: 93.2%

## O=C(Nc1ccc2ncccc2c1)c1ccc(F)c(F)c1 [CBK159810]
  viability at 28.5 h, 10 µM: 78.5%

## c1ccc([C@@H]2CN(Cc3ccncc3)C[C@H]2c2cc[nH]n2)cc1 [CBK285161]
  viability at 28.5 h, 10 µM: 88%

## COc1ccc(-n2ncc3c(N4CCN(C)CC4)ncnc32)cc1 [CBK265848]
  viability at 28.5 h, 10 µM: 89%

## CCCCCc1nnc(Nc2nc(C)cc(C)n2)[nH]1 [CBK288155]
  viability at 28.5 h, 10 µM: 95.4%

## CC(Oc1ccccc1)C(=O)Nc1cccc(C#N)c1 (stereo not shown) [CBK264062]
  viability at 28.5 h, 10 µM: 91%

## Cc1ccc(C)c(S(=O)(=O)NCCCn2ccnc2)c1 [CBK262205]
  viability at 28.5 h, 10 µM: 109%

## O=C(O)c1ccc(COc2ccccc2/C=N/O)cc1 [CBK288481]
  viability at 28.5 h, 10 µM: 108%

## OCc1ccccc1-c1cn2ccnc2c(N[C@@H]2CCN(Cc3ccccc3)C2)n1 [CBK037969]
  viability at 28.5 h, 10 µM: 104%

## CC1=C(C)C(=NNC(N)=S)C(C)=C(C)C1=NNC(N)=S [CBK261262]
  viability at 28.5 h, 10 µM: 91.9%

## COc1ccc(/C=C(\NC(C)=O)C(=O)N2CCNCC2)cc1 [CBK077408]
  viability at 28.5 h, 10 µM: 90.5%

## CC(C)(C)NC(=O)c1cccc(N2C(=O)c3ccc(C(=O)O)cc3C2=O)c1 [CBK287123]
  viability at 28.5 h, 10 µM: 86.8%

## Brc1ccc(NCc2ccccn2)cc1 [CBK026347]
  viability at 28.5 h, 10 µM: 104%

## O=C(Nc1ccccc1-c1ccccc1)C1CN(S(=O)(=O)c2ccccc2)CCN1S(=O)(=O)c1ccccc1 (stereo not shown) [CBK265902]
  viability at 28.5 h, 10 µM: 91.1%

## O=c1[nH]c2ncc(-c3ccsc3)nc2n1C1CCCCC1 [CBK064574]
  viability at 28.5 h, 10 µM: 92.6%

## CN(CC#CCN1CCCC1)C(=O)CNC(=O)OC(C)(C)C [CBK007489]
  viability at 28.5 h, 10 µM: 111%

## O=C(Cc1ccccc1[N+](=O)[O-])Nc1ccc(S(=O)(=O)N2CCCC2)cc1 [CBK265292]
  viability at 28.5 h, 10 µM: 87.1%

## Cc1ccc(S(=O)(=O)NC2=NCN(CCOC(=O)c3ccc([N+](=O)[O-])cc3)CN2)cc1 [CBK265235]
  viability at 28.5 h, 10 µM: 92.8%

## NC(=O)c1ccc(NC(=O)c2sc3ccccc3c2Cl)cc1 [CBK262643]
  viability at 28.5 h, 10 µM: 90.8%

## CC(NC(=O)c1ncoc1-c1ccc2ccccc2c1)c1cccnc1 (stereo not shown) [CBK282441]
  viability at 28.5 h, 10 µM: 94.2%

## CCOc1ccc(Cl)cc1CN(C)C(=O)NCc1nccn1C(C)C [CBK307111]
  viability at 28.5 h, 10 µM: 101%

## O=c1c2cccnc2nc(SCCO)n1CC1CCCO1 (stereo not shown) [CBK306113]
  viability at 28.5 h, 10 µM: 80.3%

## COc1ccc([C@@]23CC[C@@H](NC(=O)Nc4cccc(S(=O)(=O)C(F)(F)F)c4)C[C@@H]2N(C)CC3)cc1OC [CBK051275T]
  viability at 28.5 h, 10 µM: 99%

## COc1cc2c(cc1OC)C(C(=O)O)CC(=O)N2 (stereo not shown) [CBK218955]
  viability at 28.5 h, 10 µM: 87.4%

## CCc1nn2c(=O)cc(CN3C(=O)COc4cccnc43)nc2s1 [CBK306599]
  viability at 28.5 h, 10 µM: 88.9%

## Cc1cc2c(o1)c1cnn(CC(=O)N3CCC(C)CC3)c(=O)c1n2C [CBK284236]
  viability at 28.5 h, 10 µM: 83.9%

## O=C(O)c1ccccc1-c1ccc(-c2cc(C(=O)O)c3cc(Cl)ccc3n2)o1 [CBK268699]
  viability at 28.5 h, 10 µM: 91.1%

## COc1cccc(CN2CCN(CC(=O)N3CCCC3)[C@@H](C)C2)c1 [CBK286171]
  viability at 28.5 h, 10 µM: 78.1%

## CN(C)c1oc(-c2ccccc2)nc1S(=O)(=O)c1ccccc1 [CBK021477]
  viability at 28.5 h, 10 µM: 105%

## CC(Sc1nc2ccccc2[nH]1)C(=O)Nc1ccc(S(N)(=O)=O)cc1 (stereo not shown) [CBK266128]
  viability at 28.5 h, 10 µM: 114%

## Cc1ccc2nc(-c3ccccc3)c(C)c(C(=O)O)c2c1 [CBK270268]
  viability at 28.5 h, 10 µM: 87.6%

## O=C(Nc1ccncc1)c1snnc1-c1ccccc1 [CBK287982]
  viability at 28.5 h, 10 µM: 81.4%

## O=C(Nc1cccc2ccccc12)N1CCC(n2c(=O)[nH]c3ccccc32)CC1 [CBK149858]
  viability at 28.5 h, 10 µM: 85%

## CCOc1cc(CNC2C3CC4CC(C3)CC2C4)cc(Cl)c1OCC(N)=O (stereo not shown) [CBK265734C]
  viability at 28.5 h, 10 µM: 103%

## O=C(Oc1c(Cl)cc(Cl)c2cccnc12)c1cc(S(=O)(=O)N2CCCCC2)ccc1Cl [CBK264518]
  viability at 28.5 h, 10 µM: 100%

## Cc1cnc(CN2CCNC(=O)C2c2ccccc2C(F)(F)F)o1 (stereo not shown) [CBK306431]
  viability at 28.5 h, 10 µM: 85.4%

## Cc1ccc(C(=O)N2CCn3c2nc2ccccc23)cc1 [CBK288204]
  viability at 28.5 h, 10 µM: 108%

## O=[N+]([O-])c1ccccc1CN1C[C@H](O)C[C@H]1c1nc(-c2ccncc2)no1 [CBK288839]
  viability at 28.5 h, 10 µM: 91.2%

## NC(CCC(=O)O)C(=O)O (stereo not shown) [CBK260875C]
  viability at 28.5 h, 10 µM: 97.3%

## CC(C)C(=O)NCCn1nc(-c2ccco2)ccc1=O [CBK283863]
  viability at 28.5 h, 10 µM: 97%

## Cc1nc2ccccc2c(=O)n1Cc1cccnc1 [CBK288092]
  viability at 28.5 h, 10 µM: 94.3%

## O=C(CO)N1CC2(CCN(Cc3ccc(Cl)c(Cl)c3)CC2)c2ccccc21 [CBK131495]
  viability at 28.5 h, 10 µM: 89.5%

## Cc1ccc(OCC(=O)N2CCN(S(=O)(=O)c3ccccc3[N+](=O)[O-])CC2)cc1 [CBK264260]
  viability at 28.5 h, 10 µM: 98.5%

## Cc1cc(NC(=O)CN2CCN(c3ccc(F)cc3)CC2)nc2c1c(=O)oc1ccccc12 [CBK291232]
  viability at 28.5 h, 10 µM: 88.8%

## O=C(O)CCN1CCN(Cc2ccc(Cl)cc2)CC1 [CBK287271]
  viability at 28.5 h, 10 µM: 87.5%

## O=C(CSc1nc(O)c2c(-c3ccccc3)csc2n1)NCCc1ccccc1 [CBK268077]
  viability at 28.5 h, 10 µM: 97.2%

## Cc1noc2nc(-c3ccco3)cc(C(=O)N(C)CCOc3ccccc3)c12 [CBK295623]
  viability at 28.5 h, 10 µM: 90.1%

## Cc1ccc(S(=O)(=O)NCCSc2nnc(N)s2)cc1 [CBK266300]
  viability at 28.5 h, 10 µM: 97.9%

## Cc1ccccc1OCCCn1cncc1-c1cnn(C)c1 [CBK281762]
  viability at 28.5 h, 10 µM: 91.1%

## CSc1cccc(NC(=O)c2sc3nc(C)cc(C)c3c2N)c1 [CBK115349]
  viability at 28.5 h, 10 µM: 94.7%

## O=C(Cc1ccccc1Cl)N1CCC(O)(c2cccnc2F)CC1 [CBK284360]
  viability at 28.5 h, 10 µM: 101%

## Cc1ccc2nc(COC(=O)c3ccc(Cn4nnc5ccccc54)cc3)cn2c1 [CBK297923]
  viability at 28.5 h, 10 µM: 96.6%

## CCNC(=O)c1cc2c(=O)n3ccccc3nc2n1C [CBK287556]
  viability at 28.5 h, 10 µM: 104%

## c1ccc(OCCN2CCCN(c3cc(OCC4COc5ccccc5O4)ncn3)CC2)cc1 (stereo not shown) [CBK083395T]
  viability at 28.5 h, 10 µM: 87.7%

## Cc1cccc(C(C)C)c1NC(=O)C1Cc2ccccc2CN1S(=O)(=O)c1ccc(F)cc1 (stereo not shown) [CBK267992]
  viability at 28.5 h, 10 µM: 101%

## Cc1cnn(C2CCCN(C(=O)CCCc3cccs3)C2)c1 (stereo not shown) [CBK304168]
  viability at 28.5 h, 10 µM: 96.3%

## O=C(O)c1ccc(OCCNS(=O)(=O)c2ccc3ccccc3c2)cc1 [CBK299807]
  viability at 28.5 h, 10 µM: 83.5%

## CC(=O)c1c(C)[nH]c(C(=O)N2CCN(C3CCN(C)CC3)CC2)c1C [CBK149098]
  viability at 28.5 h, 10 µM: 104%

## CSc1ccc(CN(CCO)CCO)cc1 [CBK261931]
  viability at 28.5 h, 10 µM: 98.6%

## COc1ccccc1NC(=O)c1ccc(-c2nnc(-c3ccccc3)o2)cc1 [CBK266533]
  viability at 28.5 h, 10 µM: 107%

## CN1CCCC(NC(=O)C2CCN(Cc3ccc(F)cc3)CC2)C1 (stereo not shown) [CBK282516]
  viability at 28.5 h, 10 µM: 119%

## CC(=O)c1ccc(-c2nc(-c3occc3C=O)cnc2N)cc1 [CBK064081]
  viability at 28.5 h, 10 µM: 89.9%

## NC(=O)c1cc2c(OCCCN3CCN(C(c4ccccc4)c4ccccc4)CC3)cccc2[nH]1 [CBK016544]
  viability at 28.5 h, 10 µM: 96%

## CC(NC(=O)c1cnc(-c2cccc(C(F)(F)F)c2)c(-c2ccncc2)c1)c1ccc(F)cc1 (stereo not shown) [CBK037556]
  viability at 28.5 h, 10 µM: 99.7%

## NS(=O)(=O)c1ccc(N/C=C2\C(=O)NC(=O)N(Cc3ccccc3Cl)C2=O)cc1 [CBK265586]
Bulk resorufin, single well
  viability at 28.5 h, 10 µM: 92.3%

## Cc1cc2c(o1)c1cnn(CC(=O)N3CCCC3)c(=O)c1n2C(C)C [CBK284232]
  viability at 28.5 h, 10 µM: 89%

## CCCS(=O)(=O)n1c(=O)n(CC(=O)c2ccc(N(CC)CC)cc2)c2ccccc21 [CBK106504]
  viability at 28.5 h, 10 µM: 105%

## CC(C)n1c(=O)n(CC(=O)NC2CCCCC2)c2cccnc21 [CBK283696]
  viability at 28.5 h, 10 µM: 99%

## COc1cc(CN2CCN(C(=O)c3cccc4ccccc34)CC2)cc(OC)c1O [CBK263477]
  viability at 28.5 h, 10 µM: 103%

## O=C(c1cc2c([nH]1)CCCC2)N1CCC(CCN2CCOCC2)CC1 [CBK281869]
  viability at 28.5 h, 10 µM: 88.9%

## C#C[C@H]1C[N@@]2CC[C@H]1C[C@@H]2CNC(=O)Nc1cccc(C#N)c1 [CBK288754]
  viability at 28.5 h, 10 µM: 97.2%

## CCCNS(=O)(=O)c1ccc(OCC(=O)N2CCN(C)CC2)c(C)c1 [CBK270169]
  viability at 28.5 h, 10 µM: 102%

## O=C(NC(c1ccccc1)c1ccccc1)N1CCCC(CO)C1 (stereo not shown) [CBK156036]
  viability at 28.5 h, 10 µM: 95.4%

## COc1ccc(N2C(=S)N(CC3CCCCC3)[C@H]3[C@H]4OC(=O)[C@H](C[C@H]4O)[C@H]32)cc1 [CBK288939]
  viability at 28.5 h, 10 µM: 108%

## CN(Cc1cnn(C)c1)C(=O)c1ccc(Br)cc1O [CBK305742]
  viability at 28.5 h, 10 µM: 104%

## COc1cncc(-c2cncc(Nc3ccccc3)n2)c1 [CBK065435]
  viability at 28.5 h, 10 µM: 113%

## O=C(N/N=C\C=C\c1ccco1)c1ccc([N+](=O)[O-])cc1 [CBK261961]
  viability at 28.5 h, 10 µM: 102%

## O=C1CN(C(=O)NCC2CCCCC2)CCN1 [CBK155854]
  viability at 28.5 h, 10 µM: 85.9%

## Cc1cc(NC(=O)C(=O)NCCN2CCN(S(C)(=O)=O)CC2)ccc1Br [CBK265401]
  viability at 28.5 h, 10 µM: 85.4%

## CCCS(=O)(=O)NC1CCN(c2nc(C(F)(F)F)nc3[nH]cnc23)CC1 [CBK304587]
  viability at 28.5 h, 10 µM: 105%

## COc1ccc(Cl)cc1N1CCN(CC(=O)Nc2ccc(F)c(Cl)c2)CC1 [CBK126417]
  viability at 28.5 h, 10 µM: 101%

## Cc1ccccc1-n1nnnc1C(c1ccccc1)N(C)Cc1cccc([N+](=O)[O-])c1 (stereo not shown) [CBK262878]
  viability at 28.5 h, 10 µM: 91%

## COc1ccccc1-c1nccnc1OCc1cccs1 [CBK106819]
  viability at 28.5 h, 10 µM: 88.4%

## CC(C)=C(NC(=O)c1ccccc1)C(=O)Nc1cccc(C(=O)O)c1 [CBK058180]
  viability at 28.5 h, 10 µM: 105%

## COC(=O)CN(c1ccc(Cl)cc1Cl)S(C)(=O)=O [CBK267654]
  viability at 28.5 h, 10 µM: 105%

## Cc1nc(C2(O)CCCN(C3CCCC3)CC2)sc1COc1ccc(Cl)cc1 (stereo not shown) [CBK285940]
  viability at 28.5 h, 10 µM: 122%
